Source: publication PMC11279807, “Modulation of the Antimelanoma Activity Imparted to Artemisinin Hybrids by the Monoterpene Counterpart” (Molecules, 2024)
Where two headings read alike, the source gives them in different places.

Experiments:
C3PV = test: MTT cell viability assay on normal fibroblasts C3PV; assay type: cell-based, human; settings: 24 h treatment, triplicates, read-out: IC50 (µM ± SD) C3PV
Protocol: (§1) The primary human healthy fibroblast C3PV cell line was grown in a culture medium containing 50% Dulbecco Modified Medium (DMEM) and 50% Ham’s F10 supplemented with 10% Fetal Bovine Serum (FBS). […] To all growing media were added 1% Pen/Strep and 1% Glutamine.
To study the effect of artemisinin derivatives on cell viability, MTT assay was performed. Briefly, C3PV, WM115, and WM266 cell lines were seeded in 96-well plates (3000 cells/well in 100 μL of medium) 24 h before treatment and incubated overnight to allow for cell adherence. […] The analyses of cell viability were performed at the end of the treatment. Triplicates were made in all experiments. After 24 h of treatment with newly synthesized compounds, the culture medium was replaced with a solution containing 0.5 mg/mL of MTT. After 3 h of incubation in an incubator, the medium was removed, and a lysis solution (10% SDS, 0.6% acetic acid in DMSO) was added to dissolve the formazan crystals. Optical density measurements were performed with a microplate reader EPOCH/2 (Biotek) with 630 nm (background) and a 570 nm filters.
(§2) The IC50 values were determined via non-linear regression, using the GraphPad Prism software package version 8 (GraphPad Software, San Diego, CA, USA). Results were expressed as means of IC50 values ± SD. The TSI values were calculated using the following formula: […]

WM115 = test: MTT cell viability assay on primary melanoma cell line WM115; assay type: cell-based, human; settings: for IC50: primary melanoma WM115, MTT, 24 h treatment, triplicates, read-out: IC50 (µM ± SD) WM115; for TSI WM115: tumor selectivity index = IC50 on C3PV / IC50 on WM115
Protocol: as §1
(§3) To study the effect of artemisinin derivatives on cell viability, MTT assay was performed. Briefly, C3PV, WM115, and WM266 cell lines were seeded in 96-well plates (3000 cells/well in 100 μL of medium) 24 h before treatment and incubated overnight to allow for cell adherence. Afterward, the medium was replaced with a fresh one containing the appropriate dose of newly synthesized compounds (doses ranging from 0.01 to 1 μM were used for 24 h). The analyses of cell viability were performed at the end of the treatment. Triplicates were made in all experiments. After 24 h of treatment with newly synthesized compounds, the culture medium was replaced with a solution containing 0.5 mg/mL of MTT. After 3 h of incubation in an incubator, the medium was removed, and a lysis solution (10% SDS, 0.6% acetic acid in DMSO) was added to dissolve the formazan crystals. Optical density measurements were performed with a microplate reader EPOCH/2 (Biotek) with 630 nm (background) and a 570 nm filters.
as §2

WM266 [1] = test: MTT cell viability assay on metastatic melanoma cell line WM266; assay type: cell-based, human; settings: for TSI WM266: tumor selectivity index = IC50 on C3PV / IC50 on WM266
Protocol: as §1, §3, §2

WM266 [2] = test: Cell viability assay in the presence or absence of DFO on WM266; assay type: cell-based; settings: Homo sapiens, treatment time 48 h
Source text: To obtain information about the mode of action of compounds 9c, 9f, 10b, and 10f, we repeated the cell viability assays on the metastatic cancer line WM266 in the presence of the Fe^2+ chelating agent deferoxamine (DFO). As mentioned above, Fe^2+ ions trigger endoperoxide bridge opening of the sesquiterpene counterpart by Fenton-like mechanisms, leading to the formation of carbon- and oxygen-centered radicals. Usually, this in cell formation of single-electron reactive species seems to be responsible for the biological activity of ART and its semisynthetic and hybrid derivatives. Sequestration of Fe^2 by DFO generally reduces the efficacy of the compounds studied.
DFO was used to study the mode of action of compounds 9c, 9f, 10b, and 10f on WM266 cell line. Twenty-four hours before treatment, cells were seeded in 96-well plates and incubated overnight. Then, cells were pre-treated with 20 μM of DFO for 1 h. After this time, two washes with PBS were performed, and, subsequently, fresh medium containing different doses of the opportune compound was added for 48h. The analyses of cell viability were performed at the end of treatment, and triplicates were made in all experiments.

[3] = Stability by NMR analyses after heating; assay type: physicochemical; settings: after heating at 45 and 100 °C for 8 and 2 h, respectively
Protocol: Based on cellular results, hybrids 9c, 9f, 10b, and 10f were selected for further studies. Their stability was evaluated by NMR analyses after heating them at 45 and 100 °C for 8 and 2 h, respectively (Supplementary Materials S1).

[4] = Homo sapiens, WM266, 24 h, metastatic melanoma WM266, MTT, 24 h treatment, triplicates, read-out: IC50 (µM ± SD) WM266
[5] = metastatic melanoma WM266, MTT, 24 h treatment, triplicates, read-out: IC50 (µM ± SD) WM266

SMILES | IC50 (C3PV; Homo sapiens, C3PV, 24 h) | IC50 (WM115; Homo sapiens, WM-115, 24 h) | TSI WM115 (WM115) | IC50 (WM266 [1]; [4]) | TSI WM266 (WM266 [1]) | also measured
C=C(C)C1CC=C(CO[C@H]2O[C@@H]3O[C@@]4(C)CC[C@H]5[C@H](C)CC[C@@H]([C@H]2C)[C@@]35OO4)CC1 (stereo partly shown) [Hybrid 9b] | 0.3 ± 0.1 µM | 0.2 ± 0.01 µM | 1.5 | 0.2 ± 0.01 µM | 1.5 | –
CC(C)=CCC/C(C)=C/CO [Geraniol 8, geraniol, reference compound] | 0.5 ± 0.02 µM | 0.5 ± 0.01 µM | 1.0 | 0.5 ± 0.09 µM | 1.0 | –
CC(C)=CCC[C@@H](C)CCO[C@H]1O[C@@H]2O[C@@]3(C)CC[C@H]4[C@H](C)CC[C@@H]([C@H]1C)[C@@]24OO3 [Hybrid 9d] | 51 ± 0.3 µM | 2.9 ± 0.6 µM | 17.6 | 2.7 ± 0.2 µM | 18.9 | –
CC(C)=CCC/C(C)=C\CO [Nerol 7, nerol, reference compound] | 3.8 ± 1.5 µM | 1.4 ± 0.03 µM | 2.7 | 0.5 ± 0.01 µM | 7.6 | –
CC(C)=CCCC(C)CCOC(=O)CCC(=O)OC1OC2OC3(C)CCC4C(C)CCC(C1C)C24OO3 (stereo not shown) [Hybrid 10d] | 4.8 ± 0.9 µM | 1.7 ± 0.5 µM | 2.8 | 1.3 ± 0.8 µM | 3.7 | –
C=CCc1ccc(OC(=O)CCC(=O)OC2OC3OC4(C)CCC5C(C)CCC(C2C)C35OO4)c(OC)c1 (stereo not shown) [Hybrid 10a] | 1.6 ± 0.3 µM | 1.5 ± 0.8 µM | 1.1 | 0.6 ± 0.1 µM | 2.7 | –
C[C@H]1[C@H](OC(=O)CCC(=O)O)O[C@@H]2O[C@@]3(C)CC[C@H]4[C@H](C)CC[C@@H]1[C@@]24OO3 [ARTA 3, artesunic acid, reference compound] | 1.7 ± 0.44 µM | 1.5 ± 0.01 µM | 1.1 | 1.3 ± 0.2 µM | 1.3 | –
CC(C)=CCC[C@@H](C)CCO [(+)-citronellol (+)-6, (+)-citronellol, reference compound] | 1.9 ± 0.8 µM | 1.5 ± 0.07 µM | 1.3 | 0.6 ± 0.02 µM | 3.2 | –
C=CCc1ccc(O[C@H]2O[C@@H]3O[C@@]4(C)CC[C@H]5[C@H](C)CC[C@@H]([C@H]2C)[C@@]35OO4)c(OC)c1 [Hybrid 9a] | 0.7 ± 0.04 µM | 0.1 ± 0.01 µM | 7.0 | 1 ± 0.09 µM | 0.7 | –
CC(C)=CCC[C@H](C)CCO[C@H]1O[C@@H]2O[C@@]3(C)CC[C@H]4[C@H](C)CC[C@@H]([C@H]1C)[C@@]24OO3 [Hybrid 9e] | 50 ± 0.03 µM | 2.4 ± 0.1 µM | 20.8 | 2.2 ± 0.6 µM | 22.7 | –
C=C(C)[C@@H]1CC=C(CO)CC1 [Perillyl alcohol 5, perillyl alcohol, reference compound] | 52.5 ± 9.5 µM | 1.2 ± 0.02 µM | 43.8 | 0.6 ± 0.04 µM | 87.5 | –
C[C@H]1[C@@H](O)O[C@@H]2O[C@@]3(C)CC[C@H]4[C@H](C)CC[C@@H]1[C@@]24OO3 [DHA 2, dihydroartemisinin, reference compound] | 0.7 ± 0.19 µM | 1.6 ± 0.4 µM | 0.4 | 1.6 ± 0.03 µM | 0.4 | –
CC(C)=CCCC(C)=CCOC(=O)CCC(=O)OC1OC2OC3(C)CCC4C(C)CCC(C1C)C24OO3 (stereo not shown) [Hybrid 10f] | – | – | 19.8 | – | 87.8 | IC50 (C3PV): 7.9 ± 4.5 µM; IC50 (WM266 [2]; WM266, pre-treated with 20 μM DFO for 1 h, read-out: IC50 ± SD WM266 with DFO): 0.5 ± 0.1 µM; IC50 (WM266 [2]; WM266, without DFO, read-out: IC50 ± SD WM266 without DFO): 0.09 ± 0.03 µM; IC50 (WM115): 0.4 ± 0.04 µM; IC50 (WM266 [1]; Homo sapiens, WM266, reference hybrid on WM266, as printed in Table 2, read-out: IC50 ± SD R.H.): 0.09 ± 0.03 µM; decomposition by 1H NMR [3]: less than 5%
CC(C)=CCCC(C)=CCOC(=O)CCC(=O)OC1OC2OC3(C)CCC4C(C)CCC(C1C)C24OO3 (stereo not shown) [Hybrid 10g] | – | – | 1.6 | – | 2.4 | IC50 (C3PV): 2.4 ± 0.9 µM; IC50 (WM115): 1.5 ± 0.7 µM; IC50 (WM266 [1]; [5]): 1 ± 0.1 µM
CC(C)=CCC/C(C)=C/CO[C@H]1O[C@@H]2O[C@@]3(C)CC[C@H]4[C@H](C)CC[C@@H]([C@H]1C)[C@@]24OO3 [Hybrid 9g] | 6.2 ± 0.7 µM | 14.5 ± 1.1 µM | 0.4 | 13.4 ± 1.5 µM | 0.5 | –
CC(C)=CCCC(C)CCOC(=O)CCC(=O)OC1OC2OC3(C)CCC4C(C)CCC(C1C)C24OO3 (stereo not shown) [Hybrid 10e] | – | – | 2.7 | – | 3.2 | IC50 (C3PV): 5.1 ± 1.7 µM; IC50 (WM115): 1.9 ± 0.6 µM; IC50 (WM266 [1]; [5]): 1.6 ± 0.9 µM
CC(C)=CCCC(C)CCOC1OC2OC3(C)CCC4C(C)CCC(C1C)C24O3 (stereo not shown) [Hybrid 11c] | – | – | – | 35.1 ± 2.5 µM | – | –
CC(C)=CCCC(C)CCO (racemic) [(±)-citronellol (±)-6, (±)-citronellol, reference compound] | 3 ± 1.2 µM | 2.6 ± 0.05 µM | 1.2 | 0.3 ± 0.23 µM | 10.0 | TSI WM266 (WM266 [1]; listed as citronellol (±)-6): 10
CC(C)=CCC[C@H](C)CCO [(-)-citronellol (-)-6, (-)-citronellol, reference compound] | 1 ± 0.9 µM | 0.9 ± 0.03 µM | 1.1 | 0.5 ± 0.3 µM | 2.0 | –
CC(C)=CCCC(C)=CCOC1OC2OC3(C)CCC4C(C)CCC(C1C)C24O3 (stereo not shown) [Hybrid 11f] | – | – | – | 76.3 ± 9.5 µM | – | fold lower antimelanoma effect compared to the corresponding compounds 9c and f (WM266 [1]; WM266, 2-deoxy analogue vs. corresponding DHA hybrid): 40 fold
CC(=O)O[C@H]1C(=O)[C@@]2(C)[C@H]([C@H](OC(=O)c3ccccc3)[C@]3(O)C[C@H](OC(=O)[C@H](O)[C@@H](NC(=O)c4ccccc4)c4ccccc4)C(C)=C1C3(C)C)[C@]1(OC(C)=O)CO[C@@H]1C[C@@H]2O [PTX, paclitaxel, reference compound] | 78.9 ± 0.8 µM | 2.3 ± 0.7 µM | 34.3 | 0.9 ± 0.04 µM | 87.7 | –
CC(C)=CCCC(C)CCOC(=O)CCC(=O)OC1OC2OC3(C)CCC4C(C)CCC(C1C)C24OO3 (mixture of isomers) [Hybrid 10c] | 4.4 ± 2.9 µM | 1.3 ± 0.9 µM | 3.4 | 0.6 ± 0.02 µM | 7.3 | –
C=CCc1ccc(O)c(OC)c1 [Eugenol 4, eugenol, reference compound] | – | – | 0.3 | – | 1.1 | IC50 (C3PV; Homo sapiens): 1 ± 0.1 µM; IC50 (WM115; Homo sapiens, WM-115): 3 ± 0.02 µM; IC50 (WM266 [1]; Homo sapiens, metastatic melanoma WM266, MTT, 24 h treatment, triplicates, read-out: IC50 (µM ± SD) WM266): 0.9 ± 0.05 µM
